Laboratory results reported in patent US6197771A, “Glutamate (ampa/kainate) receptor antagonists: N-substituted fused azacycloalkylquinoxalinediones” (Warner-Lambert Company, priority 2000, dated 2001).
Counter-ions that a name gives are not always drawn.

Tests used:
[1] = target: kainate site (non-NMDA receptor); assay: Kainate site (non-NMDA receptor) binding (London and Coyle)
[2] = target: T1, glycine site of the NMDA receptor (Rattus norvegicus, UniProt P35439); assay: Binding to the glycine site of the NMDA receptor (Jones et al.)
T1 construct: from tissue

AMPA receptor = AMPA receptor binding (Honore et al.)

SMILES	IC50 [1] [µM]	inhibition at 10 µM [2] [%]	IC50 (AMPA receptor) [µM]
O=c1[nH]c2cc(Br)c3c(c2[nH]c1=O)CN(Cc1ccccc1)CC3 [Example 8, 6-Bromo-1,4,7,8,9,10-hexahydro-9-(phenylmethyl)pryrido[3,4-f]quinoxaline-2,3-dione]	16	< 50	20
O=C(Cc1ccccc1)N1CCc2c([N+](=O)[O-])cc3[nH]c(=O)c(=O)[nH]c3c2C1 [Example 38, 1,4,7,8,9,10-Hexahydro-6-nitro-9-(phenylacetyl)pyrido(3,4-f]quinoxaline-2,3-dione]	1.62	99	0.24
O=c1[nH]c2cc(Br)c3c(c2[nH]c1=O)CN(CCc1ccccc1)CC3 [Example 11, 6-Bromo-1,4,7,8,9,10-hexahydro-9-(2-phenylethyl)pyrido[3,4-f]quinoxaline-2,3-dione]	9	< 50	> 100
O=c1[nH]c2cc(Br)c3c(c2[nH]c1=O)CCN(Cc1cccc(C(F)(F)F)c1)C3 [Example 48, 6-Bromo-1,4,7,8,9,10-Hexahydro-8-[[3-(trifluoromethyl)methyl]pyrido[3,4-f]quinoxaline-2,3-dione hydrochloride]	67	–	21
O=C(Cc1ccc(Cl)cc1)N1CCc2c([N+](=O)[O-])cc3[nH]c(=O)c(=O)[nH]c3c2C1 [Example 39]	8.2	98	0.84
O=C(C1CCCCC1)N1CCc2c([N+](=O)[O-])cc3[nH]c(=O)c(=O)[nH]c3c2C1 [Example 36, 9-(Cyclohexylcarbonyl)-1,4,7,8,9,10-hexahydro-6-nitropyrido[3,4-f]quinoxaline-2,3-dione]	5.87	88	0.34
O=C(c1ccccc1)N1CCc2c([N+](=O)[O-])cc3[nH]c(=O)c(=O)[nH]c3c2C1 [Example 35, 9-Benzoyl-1,4,7,8,9,10-hexahydro-6-nitropyrido[3,4-f]quinoxaline-2,3-dione]	1.38	80	0.37
CC(C)(C)OC(=O)N1CCC(C(=O)N2CCc3ccc4[nH]c(=O)c(=O)[nH]c4c3C2)CC1 [Example 32, 1,1-dimethylethyl 4-[(1,2,3,4,7,8,9,10-octahydro-2,3-dioxopyrido[3,4-f]quinoxaline-9-yl)carbonyl]-1-piperidine carboxylate]	65	–	> 100
O=c1[nH]c2cc(Br)c3c(c2[nH]c1=O)CCN(CCCc1ccccc1)C3 [Example 54, 6-Bromo-1,4,7,8,9,10-hexahydro-8-(3-Phenylproyl)pyrido[3,4-f]quinoxaline-2,3-dione hydrochloride]	> 100	–	43
O=c1[nH]c2ccc3c(c2[nH]c1=O)CCN(Cc1ccc(C(F)(F)F)cc1)C3 [Example 26]	> 100	–	> 100
CC(C)(C)OC(=O)N1CCC(C(=O)N2CCc3c([N+](=O)[O-])cc4[nH]c(=O)c(=O)[nH]c4c3C2)CC1 [Example 34, 1,1-dimethylethyl 4-[(1,2,3,4,7,8,9,10-octahydro-6-nitro-2,3-dioxopyrido[3,4-f]quinoxaline-9-yl)carbonyl]-1-piperidine carboxylate]	6.9	81	0.58
O=c1[nH]c2ccc3c(c2[nH]c1=O)CN(Cc1ccc(C(F)(F)F)cc1)CC3 [Example 17, 1,4,7,8,9,10-Hexahydro-9-[[4-(trifluoromethyl)phenyl]methyl]pyrido[3,4-f]quinoxaline-2,3-dione]	> 100	–	> 100
O=c1[nH]c2cc([N+](=O)[O-])c3c(c2[nH]c1=O)CNCC3 [Example 31, 1,4,7,8,9,10-Hexahydro-6-nitropyrido[3,4-f]quinoxaline-2,3-dione]	0.48	70	51
O=c1[nH]c2cc(Br)c3c(c2[nH]c1=O)CN(CCCc1ccccc1)CC3 [Example 14, 6-Bromo-1,4,7,8,9,10-hexahydro-9-(3-phenylpropyl)pyrido[3,4-f]quinoxaline-2,3-dione]	40	< 50	> 100
O=c1[nH]c2ccc3c(c2[nH]c1=O)CNCC3 [Example 30, 1,4,7,8,9,10-Hexahydropyrido[3,4-f]quinoxaline-2,3-dione]	56	–	84
O=c1[nH]c2cc([N+](=O)[O-])c3c(c2[nH]c1=O)CN(Cc1ccc(C(F)(F)F)cc1)CC3 [Example 18]	34	–	3.1
O=C(c1ccc(Cl)cc1)N1CCc2c([N+](=O)[O-])cc3[nH]c(=O)c(=O)[nH]c3c2C1 [Example 37, 9-(4-Chlorobenzoyl)-1,4,7,8,9,10-hexahydro-6-nitropyrido[3,4-f]quinoxaline-2,3-dione]	8.2	74	0.84
